# Data reported in US11766472B2, “Method of treatment for hair loss” (priority 2021, dated 2023).
# Read-outs that look alike come from different tables or passages of the source.
# Columns and labels:
# [1] = tested on: hair loss (men Norwood Hamilton grade III to grade V; women Ludwig grade II and III); conditions: human, in vivo
# Method: (§1) This controlled clinical trial compares the current treatment for hair loss within two controlled groups for both men and women against the use of one embodiment of the nutritional therapy regimen described herein. One hundred patients in each of the 4 groups, a total of 400 patients, were followed for 1 year. The progress was evaluated every 2 months with computerized measurements of hair density, hair caliber, global photography and uniquely designed self-assessment scores.
# (§2) Group 3 TM: Treatment group for 100 men (TM) and
# (§3) Group 4 TW: treatment group for 100 women (TW)
# (§4) Treatment groups for both men and women followed the same protocol.
# hair loss = conditions: cited from earlier work
# [2] = tested on: hair loss (men Norwood Hamilton grade III to grade V; women Ludwig grade II and III); assay: Controlled clinical trial: minoxidil and finasteride in men, minoxidil alone in women, versus nutrient treatment regimen (Example 1); conditions: human, in vivo
# Method: as §1, §2, §3, §4
SMILES,Side effects observed with the control group [1],Patients having deteriorated with hair loss more than the initial status (hair loss; after one year) [%],Improvement (hair loss; end of 1 year),Non-responders (hair loss; end of 1 year),Duration for which patients complained of hair loss (initial shedding) [1],Side effects observed with the control group [2]
CC(C)(C)NC(=O)[C@H]1CC[C@H]2[C@@H]3CC[C@H]4NC(=O)C=C[C@]4(C)[C@H]3CC[C@]12C [finasteride],Loss of libido was reported by a few patients,17,48-59%,41-52%,,
Nc1cc(N2CCCCC2)nc(N)[n+]1[O-] [minoxidil],,,,,8-10 weeks,"scalp irritation, dryness, itching, and frizzy hair"
